From patent US20230226021A1, “ORAL FORMULATIONS OF PYRROLIDINE DERIVATIVES” (ObsEva S.A., priority 2013, published 2023)

Assay: Qualitative solubility/crystallisation tests on 15 mg scale
Format: physicochemical
Source text: The E/Z ratio pre and post dry-flash remain in the range of 30/70 to 40/60. Furthermore, such an approach should be considered on the basis of the scale at which the operation has to be carried out. On a 20 L scale, this operation would not be a time saving approach.

## CO/N=C1/C[C@@H](CO)N(C(=O)c2ccc(-c3ccccc3C)cc2)C1 [(3Z,5S), (3Z,5S)-5-(hydroxymethyl)-1-[(2′-methyl-1,1′-biphenyl-4-yl)carbonyl]pyrrolidin-3-one-O-methyloxime]
DIPE, hot
  Qualitative solubility, Dissolves in: 40 vol hot
IPA, hot
  Qualitative solubility, Dissolves in: 4 vol hot
MIBK, hot
  Qualitative solubility, Dissolves in: 4 vol hot
THF, cold
  Qualitative solubility, Dissolves in: 4 vol cold
heptanes
  Qualitative solubility, Dissolves in / Comment: insoluble in 20 vol
tBuOH, hot
  Qualitative solubility, Dissolves in: 6 vol hot
toluene, cold
  Qualitative solubility, Dissolves in: 2 vol cold
